Assay results reported in patent US12065435B2, “Compounds for the treatment of glycogen storage disorders” (HADASIT MEDICAL RESEARCH SERVICES AND DEVELOPMENT LTD., priority 2017, dated 2024).

Assays:
[1] = test system: polyglucosan body (PB) in APBD patient-derived fibroblasts; test: High content (image-based) PAS screening assay for polyglucosan bodies; format: cell-based, human; conditions: 0, 1, 5, 10 and 50 μM
Protocol: All the steps of the assay were performed automatically using a Freedom Evo 150 liquid handling robot (Tecan). APBD patient-derived fibroblasts were seeded at a density of 800 cells/well in DMEM (Gibco) supplemented with 1 mM sodium pyruvate (Gibco), 1% antibiotics (Biological Industries, Israel) and 5% fetal bovine serum (Hyclone) into 384 well microclear plates (Greiner). The plates were transferred by the robotic arm (RoMa) into an automated incubator (Liconic), integrated with the robotic system, where they were incubated at 37° C. with 5% CO2. Following 24 h incubation, the medium was replaced by the robot using medium supplemented with 10 μM of each screened compound (0.1% DMSO final concentration, all prepared by the robot). The screened compounds were part of the Diverset CL collection purchased from ChemBridge (10,084 out of 50,000 molecules).
Next, these cells were cultured for another 24 h in the automated incubator, and, using the robot, washed them with PBS (Biological Industries, Israel), the cells were fixed with 4% paraformaldehyde (PFA), washed again with PBS, neutralized the previously added PFA by ammonium chloride (Sigma Aldrich), washed with PBS, permeabilized with 0.1% Triton X-100 (Sigma Aldrich), and washed again with PBS.
Following this, a robot was used to treat the fixed cells with 0.5 g/dl diastase (or amylase, Sigma Aldrich) for 5 minutes at 37° C. in the automated incubator, wash with PBS, stained with PAS (Merck), Hoechst 33342 (Sigma Aldrich) and Cell Mask Deep Red (Molecular Probes) and wash with PBS. Images of stained cells were then acquired by the IN Cell Analyzer 2000 (GE Healthcare) and analyzed using the IN Cell Investigator (GE Healthcare) applying an algorithm that quantified the PAS signal within each Cell Mask stained cell.
Images were segmented based on the Cell Mask signal which was linked with the segmentation of the nuclei, employing an empirically established sensitivity and kernel size for allowing the best segmentation. Once these nucleus-cytoplasm complex objects were selected, the software calculated the number of these objects (cell number) as well as the intensity of the PAS signal within each of them. All the assay parameters (including the acquisition exposure times, objective, and the analysis parameters) were kept constant throughout the whole screening campaign for allowing comparison of signals obtained from different batches of assay within the campaign.
The assay was performed as mentioned above, but with compound concentrations of 1, 5, 10, and 50 μM, instead of a constant concentration of 10 μM.
The discarded data was presumably associated with cells affected by toxic compounds. In the remaining data, the measured population mean PB intensity was normalized. Based on a series of images used for training, compounds were considered as positive only where following treatment the normalized PB mean intensity was at least under −1.2 z-score of the scale. Following this approach, 85 potential hits out of the 10,084 screened compounds were selected (0.84%).

APBD skin fibroblasts = test: Multi-parametric cell-phenotypic characterization of APBD skin fibroblasts; format: cell-based, human; conditions: APBD fibroblasts treated with compound
Source text: FIG. 10 presents a graph showing multi-parametric cell-phenotypic characterization of healthy control (HC) and APBD skin fibroblasts. Upper panel: the extent of deviation from healthy control of the cell features shown, ordered by the amount of deviation (-log (P value)). […] The different comparisons analyzed are shown at the bottom of the panel.
Next, the multi-parametric analysis of compound A, one of the compounds tested in the Gbe^Y329S/Y329S mouse model for APBD was completed. The different cell features in APBD fibroblasts of several patients were ordered according to the extent of their deviation from the same features in healthy fibroblasts.

[2] = test system: APBD modeling mice (Gbe^Y329S/Y329S mouse model); test: Motor parameters in APBD modeling mice; format: in vivo; conditions: for ameliorating effect on motor parameters (summary): tested every two weeks
Protocol: This study was conducted in compounds A and B according to the schemes described in Tables 8 and 9, respectively.
As vehicle control, 0.1% DMSO was used. It is noteworthy that, in order to have a statistically significant number of animals, compound A was tested in male mice and compound B in female mice (no mixed cages were allowed).
APBD is an autosomal disease with no gender related symptoms and it was presumed that this experimental design is optimal. The mode of delivery of the compounds was intravenous (IV) injection for the first month, followed by subcutaneous injection due to lack of injection space and scaring in animal tails.
Tables 8 and 9 describe the study design for compounds A and B. both compounds were tested at the age of 4 months, two months prior to disease onset, in order to assess possible prophylactic effects, and at the age of 6 months, at disease onset, in order to assess corrective effects.
The effect of compounds A and B on various motor parameters was tested every two weeks. The results are shown in herein.
The point of reference is one time point prior to treatment initiation. Please note, since animals first treated with the compounds at 6 months of age were not injected at all before that age, they could not have been compared to animals pre-injected with vehicle. Therefore, the duration of the longitudinal studies for the cohorts first treated at the age of 6 months is shorter than that of the animals first treated at 4 months of age.

APBD mice = conditions: mouse, in vivo
[3] = treated from 4 months of age (2 months before onset), two way ANOVA with repeated measures
[4] = treated from 4 months of age, Bonferroni's multiple comparisons test
[5] = treated from 6 months of age (at onset), two way ANOVA with repeated measures
[6] = treated from 6 months of age, Bonferroni's multiple comparisons test

## COCCN(Cc1sccc1C)C(=O)c1cc(C)[nH]c(=O)c1 [UDP #4, N-(2-methoxyethyl)-6-methyl-N-[(3-methyl-2-thienyl)methyl]-2-oxo-1,2-dihydropyridine-4-carboxamide]
[1]
  dose response of diastase resistant cell associated mean PAS intensity normalized by z-score: lowered mean normalized PAS intensity in a non-dose responding manner
APBD skin fibroblasts
  area of respiring (TMRE labeled) mitochondria: decreased
  nuclear intensity: increased
[2]; 250 mg/kg, IV first month then subcutaneous
  apathy, mobility and responsiveness to experimenter: less apathic, more mobile and more responsive to intervention by the experimenter
[2]; 250 mg/kg, IV first month then subcutaneous, listed as Compound A
  ameliorating effect on motor parameters (summary): ameliorate extension reflex, grip strength and gait
[2]; 250 mg/kg, IV first month then subcutaneous, listed as compound A
  ameliorating effect on motor parameters (summary): improves the uniformity of step alteration
[2]; [3]
  average duration in movement in an open field test vs vehicle: not different from vehicle (p<0.1)
  average front paw grip strength vs vehicle: not different from vehicle (p<0.1)
  average gait length vs vehicle: not different from vehicle (p<0.1)
  average gait width vs vehicle: not different from vehicle (p<0.1)
  average latency to fall off a metal wire vs vehicle: not different from vehicle (p<0.1)
  average latency to fall off a rotating cylinder (rotarod) vs vehicle: not different from vehicle (p<0.1)
  average regularity of step distance (Coefficient of Variance of all R-R and L-L step distances) vs vehicle: significantly different from vehicle (p<0.01)
  average uniformity of step alternation (|0.5-(R-L/R-R)|) vs vehicle: not different from vehicle (p<0.1)
  extension reflex vs vehicle: different from vehicle with p<0.09
[2]; [4]
  average duration in movement in an open field test vs vehicle: no significant difference
  average front paw grip strength vs vehicle: a significant difference (p<0.05) between vehicle and treatment at 32 days after initiation of treatment
  average gait length vs vehicle: no significant difference
  average gait width vs vehicle: no significant difference
  average latency to fall off a metal wire vs vehicle: no significant difference
  average latency to fall off a rotating cylinder (rotarod) vs vehicle: no significant difference
  average regularity of step distance vs vehicle: a significant difference (p<0.05) between vehicle and treatment at 81 days after treatments initiation
  average uniformity of step alternation vs vehicle: a significant difference (p<0.05) between vehicle and treatment 95 days after treatment initiation
  extension reflex vs vehicle: no significant difference
[2]; [5]
  average duration in movement in an open field test vs vehicle: not different from vehicle (p<0.1)
  average front paw grip strength vs vehicle: different from vehicle with p<0.055
  average gait length vs vehicle: not different from vehicle (p<0.1)
  average gait width vs vehicle: not different from vehicle (p<0.1)
  average latency to fall off a metal wire vs vehicle: not different from vehicle (p<0.1)
  average latency to fall off a rotating cylinder (rotarod) vs vehicle: not different from vehicle (p<0.1)
  average regularity of step distance vs vehicle: not different from vehicle (p<0.1)
  average uniformity of step alternation (|0.5-(R-L/R-R)|) vs vehicle: significantly different from vehicle (p<0.06)
  extension reflex vs vehicle: not different from vehicle (p<0.1)
[2]; [6]
  average duration in movement in an open field test vs vehicle: no significant difference
  average front paw grip strength vs vehicle: no significant difference
  average gait length vs vehicle: no significant difference
  average gait width vs vehicle: no significant difference
  average latency to fall off a metal wire vs vehicle: no significant difference
  average latency to fall off a rotating cylinder (rotarod) vs vehicle: no significant difference
  average regularity of step distance vs vehicle: no significant difference
  average uniformity of step alternation vs vehicle: a significant difference (p<0.05) between vehicle and treatment 95 days after treatment initiation
  extension reflex vs vehicle: no significant difference

## CO[C@H]1C[C@@H]2CC[C@@H](C)[C@@](O)(O2)C(=O)C(=O)N2CCCC[C@H]2C(=O)O[C@H]([C@H](C)C[C@@H]2CC[C@@H](O)[C@H](OC)C2)CC(=O)[C@H](C)/C=C(\C)[C@@H](O)[C@@H](OC)C(=O)[C@H](C)C[C@H](C)/C=C/C=C/C=C/1C [rapamycin]
APBD mice
  toxic effects in APBD mice: toxic effects
